In ChEMBL document CHEMBL1201862, “PubChem BioAssay data set” (2004):
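Protocol summary: plate cells (96-well), add compound at 5 concentrations, incubate 48 h, interpolate endpoints linearly. Here, GI50 denotes the concentration required for 50% inhibition of growth.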 Activity calls are given as the source filed them. Cut-off read from the data, not from the text of the source: active = GI50 up to about 1.1 µM and inactive = higher.

Assays:
Assay in all cases: DTP human tumour cell line panel, 48 h
[1] = system: SK-MEL-28
[2] = system: SK-MEL-5
[3] = system: IGROV-1
[4] = system: HOP-92
[5] = system: HCT-116
[6] = system: UO-31
[7] = system: T47D
[8] = system: Malme-3M
[9] = system: SF-268
[10] = system: NCI-H522
[11] = system: SK-MEL-2
[12] = system: UACC-257
[13] = system: PC-3
[14] = system: CCRF-CEM
[15] = system: SW-620
[16] = system: DU-145
[17] = system: TK-10
[18] = system: A549
[19] = system: COLO 205
[20] = system: A498
[21] = system: NCI/ADR-RES
[22] = system: OVCAR-8
[23] = system: UACC-62
[24] = system: MOLT-4
[25] = system: NCI-H226
[26] = system: NCI-H460
[27] = system: M14
[28] = system: CAKI-1
[29] = system: SN12C
[30] = system: EKVX
[31] = system: RXF 393
[32] = system: Hs-578T
[33] = system: HCT-15
[34] = system: OVCAR-3
[35] = system: RPMI-8226
[36] = system: NCI-H23
[37] = system: ACHN
[38] = system: MDA-N
[39] = system: SK-OV-3
[40] = system: SR
[41] = system: MDA-MB-231
[42] = system: HT-29
[43] = system: MCF7
[44] = system: U-251
[45] = system: BT-549
[46] = system: SF-295
[47] = system: KM12
[48] = system: HL-60
[49] = system: MDA-MB-435
[50] = system: K562
[51] = system: OVCAR-5
[52] = system: HOP-62
[53] = system: OVCAR-4
[54] = system: LOX IMVI
[55] = system: SF-539
[56] = system: SNB-75
[57] = system: SNB-19
[58] = system: 786-0

How did the GI50 [1] turn out when `CCCCN1CN2C(=O)C(C(=O)OCC)C(=O)c3sc4nc(SC)nc1c4c32` (stereo not given) was run?
The GI50 was 19.8 µM (inactive).

And the GI50 [2]?
Its GI50 is 12.3 µM (inactive).

And the GI50 [3]?
Its GI50 is 18.9 µM (inactive).

What about the GI50 [4] of the same molecule?
The GI50 was 14.9 µM (inactive).

And the GI50 [5]?
The GI50 was 15.9 µM (inactive).

What about the GI50 [6] of the same molecule?
The GI50 was 21.1 µM (inactive).

And the GI50 [7]?
Its GI50 is 19.7 µM (inactive).

And the GI50 [8]?
The GI50 was 15 µM (inactive).

What about the GI50 [9] of the same molecule?
The GI50 was 19.9 µM (inactive).

What about the GI50 [10] of the same molecule?
The GI50 was 18.9 µM (inactive).

And the GI50 [11]?
Its GI50 is 19.8 µM (inactive).

And the GI50 [12]?
The GI50 was 19 µM (inactive).

What about the GI50 [13] of the same molecule?
Its GI50 is 19.2 µM (inactive).

What about the GI50 [14] of the same molecule?
The GI50 was 34 µM (inactive).

And the GI50 [15]?
Its GI50 is 18.4 µM (inactive).

And the GI50 [16]?
The GI50 was 19 µM (inactive).

What about the GI50 [17] of the same molecule?
Its GI50 is 14.9 µM (inactive).

What about the GI50 [18] of the same molecule?
The GI50 was 19.9 µM (inactive).

What about the GI50 [19] of the same molecule?
The GI50 was 18.7 µM (inactive).

What about the GI50 [20] of the same molecule?
The GI50 was 1.53 µM (inactive).

And the GI50 [21]?
Its GI50 is 19 µM (inactive).

And the GI50 [22]?
Its GI50 is 21.6 µM (inactive).

And the GI50 [23]?
Its GI50 is 17.7 µM (inactive).

What about the GI50 [24] of the same molecule?
The GI50 was 29 µM (inactive).

And the GI50 [25]?
Its GI50 is 19 µM (inactive).

What about the GI50 [26] of the same molecule?
The GI50 was 19.5 µM (inactive).

What about the GI50 [27] of the same molecule?
The GI50 was 22.4 µM (inactive).

What about the GI50 [28] of the same molecule?
Its GI50 is 17.3 µM (inactive).

And the GI50 [29]?
The GI50 was 19.7 µM (inactive).

And the GI50 [30]?
The GI50 was 17.9 µM (inactive).

And the GI50 [31]?
Its GI50 is 20.5 µM (inactive).

And the GI50 [32]?
Its GI50 is < 0.01 µM (active).

And the GI50 [33]?
Its GI50 is 20 µM.

And the GI50 [34]?
The GI50 was 19 µM (inactive).

What about the GI50 [35] of the same molecule?
Its GI50 is 21.1 µM (inactive).

What about the GI50 [36] of the same molecule?
The GI50 was 18 µM (inactive).

What about the GI50 [37] of the same molecule?
The GI50 was 17 µM (inactive).

What about the GI50 [38] of the same molecule?
The GI50 was 17.1 µM (inactive).

What about the GI50 [39] of the same molecule?
The GI50 was 17.6 µM (inactive).

And the GI50 [40]?
Its GI50 is 33.1 µM (inactive).

And the GI50 [41]?
Its GI50 is 17.9 µM (inactive).

What about the GI50 [42] of the same molecule?
Its GI50 is 19.8 µM (inactive).

And the GI50 [43]?
Its GI50 is 21 µM (inactive).

What about the GI50 [44] of the same molecule?
The GI50 was 18.2 µM (inactive).

And the GI50 [45]?
The GI50 was 16.6 µM (inactive).

And the GI50 [46]?
The GI50 was 16.6 µM (inactive).

And the GI50 [47]?
Its GI50 is 16.8 µM (inactive).

What about the GI50 [48] of the same molecule?
The GI50 was 46.6 µM (inactive).

What about the GI50 [49] of the same molecule?
Its GI50 is 18.2 µM (inactive).

What about the GI50 [50] of the same molecule?
Its GI50 is 35.5 µM (inactive).

What about the GI50 [51] of the same molecule?
Its GI50 is 18.6 µM (inactive).

And the GI50 [52]?
The GI50 was 15.7 µM (inactive).

What about the GI50 [53] of the same molecule?
The GI50 was 18.8 µM (inactive).

And the GI50 [54]?
The GI50 was 20.5 µM (inactive).

What about the GI50 [55] of the same molecule?
The GI50 was 18.5 µM (inactive).

What about the GI50 [56] of the same molecule?
The GI50 was 17.5 µM (inactive).

What about the GI50 [57] of the same molecule?
Its GI50 is 19 µM (inactive).

Which GI50 [1] does the source give for `Nc1ccccc1.O=C(O)C(C(F)(F)F)C(F)(F)F` here?
The GI50 was > 100 µM (inactive).

And the GI50 [2]?
Its GI50 is > 100 µM (inactive).

What about the GI50 [3] of the same molecule?
Its GI50 is > 100 µM (inactive).

And the GI50 [4]?
Its GI50 is > 100 µM (inactive).

And the GI50 [5]?
The GI50 was > 100 µM (inactive).

What about the GI50 [6] of the same molecule?
Its GI50 is > 100 µM (inactive).

What about the GI50 [7] of the same molecule?
Its GI50 is > 100 µM (inactive).

And the GI50 [8]?
Its GI50 is > 100 µM (inactive).

And the GI50 [9]?
Its GI50 is > 100 µM (inactive).

And the GI50 [10]?
Its GI50 is > 100 µM (inactive).

And the GI50 [11]?
Its GI50 is > 100 µM (inactive).

What about the GI50 [12] of the same molecule?
The GI50 was > 100 µM (inactive).

What about the GI50 [13] of the same molecule?
The GI50 was > 100 µM (inactive).

What about the GI50 [14] of the same molecule?
Its GI50 is > 100 µM (inactive).

And the GI50 [15]?
The GI50 was > 100 µM (inactive).

And the GI50 [16]?
Its GI50 is 99.5 µM (inactive).

What about the GI50 [17] of the same molecule?
Its GI50 is > 100 µM (inactive).

And the GI50 [18]?
The GI50 was > 100 µM (inactive).

What about the GI50 [19] of the same molecule?
Its GI50 is > 100 µM (inactive).

And the GI50 [20]?
Its GI50 is > 100 µM (inactive).

What about the GI50 [21] of the same molecule?
The GI50 was > 100 µM (inactive).

And the GI50 [22]?
The GI50 was > 100 µM (inactive).

And the GI50 [23]?
Its GI50 is 68.5 µM (inactive).

What about the GI50 [24] of the same molecule?
Its GI50 is > 100 µM (inactive).

What about the GI50 [25] of the same molecule?
Its GI50 is > 100 µM (inactive).

What about the GI50 [26] of the same molecule?
The GI50 was > 100 µM (inactive).

And the GI50 [27]?
The GI50 was > 100 µM (inactive).

What about the GI50 [28] of the same molecule?
Its GI50 is 34 µM (inactive).

And the GI50 [29]?
The GI50 was > 100 µM (inactive).

What about the GI50 [30] of the same molecule?
The GI50 was > 100 µM (inactive).

And the GI50 [31]?
Its GI50 is > 100 µM (inactive).

What about the GI50 [32] of the same molecule?
Its GI50 is > 100 µM (inactive).

What about the GI50 [58] of the same molecule?
Its GI50 is > 100 µM (inactive).

And the GI50 [33]?
Its GI50 is 14.9 µM.

And the GI50 [34]?
The GI50 was > 100 µM (inactive).

What about the GI50 [35] of the same molecule?
Its GI50 is > 100 µM (inactive).

What about the GI50 [36] of the same molecule?
Its GI50 is > 100 µM (inactive).

And the GI50 [37]?
The GI50 was > 100 µM (inactive).

And the GI50 [38]?
Its GI50 is > 100 µM (inactive).

And the GI50 [39]?
Its GI50 is > 100 µM (inactive).

And the GI50 [40]?
Its GI50 is > 100 µM (inactive).

And the GI50 [41]?
Its GI50 is > 100 µM (inactive).

What about the GI50 [42] of the same molecule?
The GI50 was > 100 µM (inactive).

And the GI50 [43]?
Its GI50 is > 100 µM (inactive).

What about the GI50 [44] of the same molecule?
Its GI50 is > 100 µM (inactive).

And the GI50 [45]?
Its GI50 is > 100 µM (inactive).

What about the GI50 [46] of the same molecule?
Its GI50 is > 100 µM (inactive).

What about the GI50 [47] of the same molecule?
The GI50 was 71.8 µM (inactive).

What about the GI50 [48] of the same molecule?
The GI50 was > 100 µM (inactive).

And the GI50 [49]?
The GI50 was > 100 µM (inactive).

And the GI50 [50]?
The GI50 was > 100 µM (inactive).

What about the GI50 [51] of the same molecule?
Its GI50 is > 100 µM (inactive).

What about the GI50 [52] of the same molecule?
Its GI50 is > 100 µM (inactive).

What about the GI50 [53] of the same molecule?
Its GI50 is > 100 µM (inactive).

What about the GI50 [54] of the same molecule?
Its GI50 is > 100 µM (inactive).

What about the GI50 [55] of the same molecule?
The GI50 was > 100 µM (inactive).

And the GI50 [56]?
The GI50 was > 100 µM (inactive).

And the GI50 [57]?
Its GI50 is > 100 µM (inactive).
